Experimental data as given in article PMC3366211, “Leishmanicidal Activity of Nine Novel Flavonoids from Delphinium staphisagria” (The Scientific World Journal, 2012).

Columns and labels:
[1] = system: L. infantum promastigote forms; experiment: Promastigote forms assay; assay type: cell-based, Leishmania infantum; settings: for SI Promastigote forms: IC50 macrophages/IC50 parasite form; for times SI exceeds the reference drug SI (all forms): extracellular and intracellular forms; for times SI exceeds the reference drug SI (all forms) / number of times that compound SI exceeds the reference drug SI, Promastigote forms: reference Glucantime; for number of times that compound SI exceeds the reference drug SI, Promastigote forms: in brackets; for IC50: Leishmania infantum, 72 h
Method: (§1) The compounds obtained were dissolved in the culture medium, at dosages of 100, 50, 25, 10, and 1 μM. The effects of each compound against promastigote forms were tested at 72 hours using a Neubauer haemocytometric chamber. The antileishmanial effect is expressed as the IC50, that is, the concentration required to give 50% inhibition, calculated by linear regression analysis from the Kc values of the concentrations employed.

[2] = system: L. braziliensis promastigote forms; experiment: Promastigote forms assay; assay type: cell-based, Leishmania braziliensis; settings: for SI Promastigote forms: IC50 macrophages/IC50 parasite form; for IC50: Leishmania braziliensis, 72 h; for number of times that compound SI exceeds the reference drug SI, Promastigote forms: in brackets, reference Glucantime
Method: as §1

[3] = system: L. infantum axenic amastigote forms; experiment: Axenic amastigote forms assay; assay type: cell-based, Leishmania infantum; settings: for SI Axenic amastigote forms: IC50 macrophages/IC50 parasite form; for IC50: Leishmania infantum, 48 hours per method (72 h); for number of times that compound SI exceeds the reference drug SI, Axenic amastigote forms: in brackets, reference Glucantime
Method: (§2) Axenic amastigotes forms of L. infantum and L. braziliensis were cultured following the methodology described previously by Moreno et al.. Thus, promastigote transformation to amastigotes was obtained after three days of culture in M199 medium (Invitrogen, Leiden, The Netherlands) supplemented with 10% heat-inactivated FCS, 1 g/L β-alanine, 100 mg/L L-asparagine, 200 mg/L sacarose, 50 mg/L sodium pyruvate, 320 mg/L malic acid, 40 mg/L fumaric acid, 70 mg/L succinic acid, 200 mg/L α-ketoglutaric acid, 300 mg/L citric acid, 1.1 g/L sodium bicarbonate, 5 g/L MES, 0.4 mg/L hemin, and 10 mg/L gentamicin pH 5.4 at 37°C. The effect of each compound against axenic amastigotes forms was tested at 48 hours using a Neubauer haemocytometric chamber. The antileishmanial effect is expressed as the IC50.

[4] = system: L. braziliensis axenic amastigote forms; experiment: Axenic amastigote forms assay; assay type: cell-based, Leishmania braziliensis; settings: for SI Axenic amastigote forms: IC50 macrophages/IC50 parasite form; for IC50: Leishmania braziliensis, 48 hours per method (72 h); for number of times that compound SI exceeds the reference drug SI, Axenic amastigote forms: in brackets, reference Glucantime
Method: as §2

[5] = system: L. infantum intracellular amastigote forms; experiment: Intracellular amastigote forms assay in J774.2 macrophages; assay type: cell-based, Leishmania infantum; settings: for SI Intracellular amastigote forms / number of times that compound SI exceeds the reference drug SI, Intracellular amastigote forms: L. infantum; for SI Intracellular amastigote forms: IC50 macrophages/IC50 parasite form; for number of times that compound SI exceeds the reference drug SI, Intracellular amastigote forms: in brackets, reference Glucantime; for IC50: Leishmania infantum, L. infantum in J774.2 macrophages, 72 h
Method: (§3) Cells were seeded at a density of 1 × 10^4 cells/well in 24-well microplates (Nunc) with rounded coverslips on the bottom and cultured for 2 days. Afterwards the cells were infected in vitro with promastigote forms of L. infantum and L. braziliensis, at a ratio of 10 : 1 during 24 hours. The non-phagocytosed parasites were removed by washing, and then the drugs (at 1, 10, 25, 50, 100 μM) were added. Macrophages with the drugs were incubated for 72 hours at 37°C in 5% CO2.
(§4) Drug activity was determined on the basis of number of amastigotes in treated and untreated cultures in methanol-fixed and Giemsa-stained preparations. The number of amastigotes was determined by analyzing 200 host cells distributed in randomly chosen microscopic fields. The antileishmanial effect is expressed as the IC50 values are the means of three separate determinations.

[6] = system: L. braziliensis intracellular amastigote forms; experiment: as above; assay type: cell-based, Leishmania braziliensis; settings: for SI Intracellular amastigote forms / number of times that compound SI exceeds the reference drug SI, Intracellular amastigote forms: L. braziliensis; for SI Intracellular amastigote forms: IC50 macrophages/IC50 parasite form; for number of times that compound SI exceeds the reference drug SI, Intracellular amastigote forms: in brackets, reference Glucantime; for IC50: Leishmania braziliensis, L. braziliensis in J774.2 macrophages, 72 h
Method: as §3, §4

J774.2 macrophages = experiment: Cytotoxicity test for macrophages (flow cytometry); assay type: cell-based, BALB/c rat; settings: Mus musculus, J774.2, 72 h, J774.2 macrophages after 72 h of culture; read-out: Macrophage toxicity IC50
Method: J774.2 macrophages (ECACC number 91051511) were originally obtained from a tumour in a female BALB/c […] in 1968. The cytotoxicity test for macrophages was performed according to the methodology of González et al.. After 72 hours of treatment, cell viability was determined by flow cytometry. Thus, 100 μL/well of propidium iodide solution ([…]) was added and incubated for 10 min at 28°C in darkness. Afterwards, 100 μL/well of fluorescein diacetate (100 ng/mL) was added and incubated under the same conditions. Finally, the cells were recovered by centrifugation at 400 g for 10 min and the precipitate washed with phosphate buffered saline (PBS). Flow cytometric analysis was performed with a FACSVantage flow cytometer (Becton Dickinson). The percentage viability was calculated in comparison with the control culture. The IC50 was calculated using linear regression analysis from the Kc values of the concentrations employed.

L. infantum = experiment: Infection assay in J774.2 macrophages; assay type: cell-based, Leishmania infantum; settings: IC25 concentration; for infection rate decrease, percentage of inhibition capacity: with respect to control
Method: (§5) J774.2 macrophage cells were grown under the same conditions expressed in amastigote forms assay during two days. Afterwards, the cells were infected in vitro with promastigote forms of L. infantum and L. braziliensis, at a ratio of 10 : 1. The drugs (IC25 concentrations) were added immediately after infection and were incubated for 12 hours at 37°C in 5% CO2. The nonphagocytosed parasites and the drugs were removed by washing, and then the infected cultures were grown for 10 days in fresh medium. Fresh culture medium was added every 48 h. The drug activity was determined from the percentage of infected cells and the number of amastigotes per infected cell (in treated and untreated cultures) in methanol-fixed and Giemsa-stained preparations. The percentage of infected cells and the mean number of amastigotes per infected cell were determined by analyzing 200 host cells distributed in randomly chosen microscopic fields. Values are the average of three separate determinations.

L. braziliensis = experiment: Infection assay in J774.2 macrophages; assay type: cell-based, Leishmania braziliensis; settings: IC25 concentration; for infection rate decrease, percentage of inhibition capacity: with respect to control
Method: as §5

[7] = system: L. infantum promastigotes; experiment: Metabolite excretion (1H-NMR); assay type: cell-based, Leishmania infantum; settings: IC25, 96 hours, vs control
Method: (§6) Cultures of L. infantum and L. braziliensis promastigotes (initial concentration 5 × 10^5 cells/mL) received IC25 concentrations of the compounds (except for control cultures). After incubation for 96 hours at 28°C, the cells were centrifuged at 400 g for 10 min. Then supernatants were collected to determine the excreted metabolites using ^1H-NMR, and, eventually, chemical displacements were expressed in parts per million (ppm), using sodium 2,2-dimethyl-2-silapentane-5-sulphonate as the reference signal. The chemical displacements used to identify the respective metabolites were consistent with those described by Fernández-Becerra et al.

[8] = system: L. braziliensis promastigotes; experiment: Metabolite excretion (1H-NMR); assay type: cell-based, Leishmania braziliensis; settings: IC25, 96 hours, vs control
Method: as §6

[9] = system: L. infantum promastigotes; experiment: Ultrastructural alterations (TEM); assay type: cell-based, Leishmania infantum; settings: IC25, 96 hours
Method: (§7) The parasites were cultured at a density of 5 × 10^5 cells/mL in MTL medium, and the cultures contained drugs at the IC25 concentration.
(§8) After 96 hours, those cultures were centrifuged at 400 g for 10 min, and the pellets produced were washed in PBS and then mixed with 2% (v/v) P-formaldehyde-glutaraldehyde in 0.05 M cacodylate buffer (pH 7.4) for 4 hours at 4°C. After that, the pellets were prepared for TEM employing the technique of González et al..

[10] = system: L. braziliensis promastigotes; experiment: Ultrastructural alterations (TEM); assay type: cell-based, Leishmania braziliensis; settings: IC25, 96 hours
Method: as §7, §8

Row | IC50 [2] [µM] | IC50 [3] [µM] | IC50 [4] [µM] | IC50 [6] [µM] | SMILES | SI Promastigote forms [1] | times SI exceeds the reference drug SI (all forms) [1] | number of times that compound SI exceeds the reference drug SI, Promastigote forms [1] | SI Promastigote forms [2] | number of times that compound SI exceeds the reference drug SI, Promastigote forms [2] | SI Axenic amastigote forms [3] | number of times that compound SI exceeds the reference drug SI, Axenic amastigote forms [3] | SI Axenic amastigote forms [4] | number of times that compound SI exceeds the reference drug SI, Axenic amastigote forms [4] | SI Intracellular amastigote forms [5] | number of times that compound SI exceeds the reference drug SI, Intracellular amastigote forms [5] | SI Intracellular amastigote forms [6] | number of times that compound SI exceeds the reference drug SI, Intracellular amastigote forms [6] | IC50 (J774.2 macrophages) [µM] | decrease of average number of amastigotes per infected macrophage cell (L. infantum) [%] | infection rate decrease, percentage of inhibition capacity (L. infantum) [%] | other results
1 | 29 ± 1.5 | 18.4 ± 1.3 | 25.5 ± 0.7 | 20.1 ± 1.7 | CC(=O)O[C@H]1[C@H](Oc2c(-c3ccc(O)c(O)c3)oc3cc(O[C@@H]4O[C@@H](C)[C@H](O)[C@@H](O)[C@H]4O)cc(O)c3c2=O)O[C@H](CO)[C@@H](O)[C@@H]1O [Compound 8, 2′′-acetylpetiolaroside] | 52.4 | more than 50 times | 66 | >34.5 | 58 | >54.3 | 91 | >39.2 | 78 | >31.2 | 62 | >49.8 | 100 | > 1000 | 78 | 95 | IC50 [5]: 32.1 ± 2 µM; decrease of average number of amastigotes per infected macrophage cell (L. braziliensis): 82%; infection rate decrease, percentage of inhibition capacity (L. braziliensis): 88%; change in excreted catabolites [7]: an increase in the excretion of succinate, and acetate, followed by malate, alanine, lactate and ethanol; change in excreted catabolites [8]: decreases in the excretion of acetate; ultrastructural alterations by TEM [9]: many of the parasites adopted distorted shapes with distorted cytoplasm; ultrastructural alterations by TEM [10]: induced changes in the shape of parasites, with them showing completely altered forms
2 | 21.1 ± 1.7 | 19.4 ± 1.4 | 19.5 ± 0.8 | 33.9 ± 3.5 | C[C@H]1O[C@H](Oc2cc(O)c3c(=O)c(O[C@@H]4O[C@H](CO)[C@@H](O)[C@H](O)[C@H]4O)c(-c4ccc(O)c(O)c4)oc3c2)[C@@H](O)[C@@H](O)[C@@H]1O [Compound 7, petiolaroside] | >40.8 | more than 50 times | 51 | >47.4 | 79 | >51.5 | 86 | >51.3 | 103 | >36.0 | 72 | >29.5 | 59 | > 1000 | 49 | 77 | IC50 [1]: 24.5 ± 1.1 µM; IC50 [5]: 27.8 ± 1.4 µM; decrease of average number of amastigotes per infected macrophage cell (L. braziliensis): 55%; infection rate decrease, percentage of inhibition capacity (L. braziliensis): 69%; change in excreted catabolites [7]: an increase in the production of malate, succinate, ethanol, and lactate, but a decrease of excreted acetate and alanine levels; change in excreted catabolites [8]: decreases in the excretion of acetate; ultrastructural alterations by TEM [9]: no induction of substantial alterations; ultrastructural alterations by TEM [10]: All these changes occurred
3 | 31.3 ± 3 | 30.5 ± 2.3 | 28 ± 1.6 | 30.4 ± 2.7 | CC(=O)OC[C@H]1O[C@@H](Oc2cc(OC(C)=O)c3c(=O)c(O[C@@H]4O[C@H](COC(C)=O)[C@@H](OC(C)=O)[C@H](OC(C)=O)[C@H]4OC(C)=O)c(-c4ccc(OC(C)=O)cc4)oc3c2)[C@H](OC(C)=O)[C@@H](OC(C)=O)[C@@H]1OC(C)=O [Compound 6] | >43.3 | more than 50 times | 54 | >31.9 | 53 | >32.8 | 55 | >35.7 | 71 | 24.8 | 50 | >32.9 | 66 | > 1000 | 24 | 71 | IC50 [1]: 23.1 ± 4.6 µM; decrease of average number of amastigotes per infected macrophage cell (L. braziliensis): 69%; infection rate decrease, percentage of inhibition capacity (L. braziliensis): 82%; change in excreted catabolites [7]: an increase in the excretion of succinate, and acetate, followed by malate, alanine, lactate and ethanol; change in excreted catabolites [8]: decreases in the excretion of acetate; ultrastructural alterations by TEM [9]: induced empty vacuoles, lipid vacuoles, and a large number of electrodense vesicles
